Measured values published in the NIST ThermoML archive (doi:10.1016/j.jct.2014.07.019).

Test: xn = mol fraction of the nth substance listed
Details: 100 kPa, Liquid; for speed of sound: Frequency=3 MHz, Sing-around technique in a fixed-path interferometer; for mass density: Vibrating tube method

CCCCOCC(C)O (stereo not given) [1-butoxy-2-propanol] + CCCCO
Details | mass density, 293.15 K [kg/m3] | mass density, 298.15 K [kg/m3] | mass density, 303.15 K [kg/m3] | mass density, 308.15 K [kg/m3] | mass density, 313.15 K [kg/m3] | speed of sound, 293.15 K [m/s] | speed of sound, 298.15 K [m/s] | speed of sound, 303.15 K [m/s] | speed of sound, 308.15 K [m/s] | speed of sound, 313.15 K [m/s]
x1 = 0.0519 | 815.814 | 811.979 | 808.09 | 804.168 | 800.279 | 1259.9 | 1243.7 | 1227.1 | 1210.6 | 1193
x1 = 0.0992 | 821.015 | 817.166 | 813.235 | 809.277 | 805.328 | 1262.1 | 1246.1 | 1229.4 | 1212.9 | 1194.8
x1 = 0.1522 | 826.515 | 822.607 | 818.628 | 814.607 | 810.63 | 1264.4 | 1248.7 | 1232 | 1215.4 | 1196.7
x1 = 0.2025 | 831.372 | 827.404 | 823.395 | 819.351 | 815.31 | 1266.4 | 1250.8 | 1234.1 | 1217.4 | 1198.4
x1 = 0.2533 | 835.963 | 831.953 | 827.91 | 823.833 | 819.767 | 1268.2 | 1252.7 | 1235.8 | 1219 | 1199.9
x1 = 0.3031 | 840.187 | 836.14 | 832.063 | 827.949 | 823.842 | 1269.8 | 1254.1 | 1237.2 | 1220.3 | 1201.2
x1 = 0.4039 | 847.844 | 843.734 | 839.592 | 835.411 | 831.226 | 1272.5 | 1256.4 | 1239.4 | 1222.4 | 1203.2
x1 = 0.4992 | 854.333 | 850.165 | 845.969 | 841.732 | 837.498 | 1274.5 | 1258.4 | 1241.2 | 1224 | 1204.8
x1 = 0.6055 | 860.746 | 856.533 | 852.278 | 847.986 | 843.678 | 1276.3 | 1260.1 | 1242.8 | 1225.4 | 1206.2
x1 = 0.7017 | 865.941 | 861.685 | 857.378 | 853.038 | 848.688 | 1277.4 | 1260.8 | 1243.5 | 1226.1 | 1207
x1 = 0.8058 | 871.007 | 866.701 | 862.345 | 857.961 | 853.562 | 1278.3 | 1261.3 | 1243.9 | 1226.4 | 1207.5
x1 = 0.852 | 873.053 | 868.741 | 864.367 | 859.962 | 855.538 | 1278.6 | 1261.3 | 1243.9 | 1226.3 | 1207.5
x1 = 0.8982 | 875.005 | 870.664 | 866.282 | 861.844 | 857.451 | 1278.8 | 1261.3 | 1243.9 | 1226.3 | 1207.5
x1 = 0.9565 | 877.407 | 873.039 | 868.667 | 864.216 | 859.743 | 1279 | 1261.5 | 1243.9 | 1226.3 | 1207.5
x1 = 1 | 879.031 | 874.632 | 870.204 | 865.737 | 861.241 | 1279 | 1260.9 | 1242.9 | 1224.9 | 1207

CCCCOCC(C)O (stereo not given) [1-butoxy-2-propanol] + CCCO
Details | mass density, 293.15 K [kg/m3] | mass density, 298.15 K [kg/m3] | mass density, 303.15 K [kg/m3] | mass density, 308.15 K [kg/m3] | mass density, 313.15 K [kg/m3] | speed of sound, 293.15 K [m/s] | speed of sound, 298.15 K [m/s] | speed of sound, 303.15 K [m/s] | speed of sound, 308.15 K [m/s] | speed of sound, 313.15 K [m/s]
x1 = 0.0573 | 812.915 | 808.937 | 804.905 | 800.798 | 796.651 | 1230.8 | 1213.8 | 1197.1 | 1180.4 | 1164.1
x1 = 0.1001 | 818.814 | 814.76 | 810.658 | 806.519 | 802.334 | 1235.7 | 1218.8 | 1202 | 1185.4 | 1169
x1 = 0.1558 | 825.901 | 821.803 | 817.667 | 813.493 | 809.279 | 1241.5 | 1224.8 | 1208 | 1191.3 | 1174.7
x1 = 0.2031 | 831.228 | 827.109 | 822.949 | 818.753 | 814.513 | 1246.3 | 1229.3 | 1212.5 | 1195.7 | 1179.1
x1 = 0.2532 | 836.415 | 832.273 | 828.091 | 823.867 | 819.599 | 1250.7 | 1233.6 | 1216.8 | 1199.8 | 1183.1
x1 = 0.3033 | 841.124 | 836.955 | 832.749 | 828.501 | 824.211 | 1254.6 | 1237.5 | 1220.5 | 1203.5 | 1186.7
x1 = 0.4046 | 849.477 | 845.264 | 841.013 | 836.72 | 832.382 | 1261.2 | 1243.9 | 1226.8 | 1209.6 | 1192.7
x1 = 0.5048 | 856.464 | 852.232 | 847.934 | 843.623 | 839.27 | 1266.3 | 1248.9 | 1231.7 | 1214.4 | 1197.2
x1 = 0.6055 | 862.441 | 858.152 | 853.82 | 849.452 | 845.054 | 1270.3 | 1252.9 | 1235.6 | 1218.2 | 1201
x1 = 0.7052 | 867.521 | 863.197 | 858.839 | 854.443 | 850.006 | 1273.2 | 1255.7 | 1238.4 | 1221.1 | 1203.8
x1 = 0.807 | 872.037 | 867.684 | 863.298 | 858.874 | 854.415 | 1275.7 | 1258.3 | 1240.8 | 1223.4 | 1206.2
x1 = 0.8546 | 873.936 | 869.566 | 865.165 | 860.735 | 856.272 | 1276.8 | 1259.3 | 1241.8 | 1224.2 | 1206.6
x1 = 0.9041 | 875.766 | 871.424 | 867.019 | 862.582 | 858.113 | 1277.7 | 1260.2 | 1242.6 | 1225 | 1207.4
x1 = 0.9537 | 877.527 | 873.128 | 868.704 | 864.265 | 859.772 | 1278.5 | 1260.8 | 1243.2 | 1225.6 | 1208.1
x1 = 1 | 879.031 | 874.632 | 870.204 | 865.737 | 861.241 | 1279 | 1260.9 | 1242.9 | 1224.9 | 1207

CCCCOCC(C)O (stereo not given) [1-butoxy-2-propanol] + CCC(C)O
Details | mass density, 293.15 K [kg/m3] | mass density, 298.15 K [kg/m3] | mass density, 303.15 K [kg/m3] | mass density, 308.15 K [kg/m3] | mass density, 313.15 K [kg/m3] | speed of sound, 293.15 K [m/s] | speed of sound, 298.15 K [m/s] | speed of sound, 303.15 K [m/s] | speed of sound, 308.15 K [m/s] | speed of sound, 313.15 K [m/s]
x1 = 0.0517 | 812.712 | 808.614 | 804.434 | 800.162 | 795.809 | 1234.4 | 1217.3 | 1201.4 | 1181.6 | 1163.6
x1 = 0.1014 | 818.284 | 814.152 | 809.949 | 805.653 | 801.286 | 1238.8 | 1221.5 | 1205.7 | 1186 | 1168
x1 = 0.1527 | 823.685 | 819.533 | 815.316 | 811.017 | 806.644 | 1243 | 1225.9 | 1209.6 | 1190 | 1172
x1 = 0.2041 | 828.704 | 824.532 | 820.316 | 816 | 811.61 | 1246.9 | 1229.4 | 1213.3 | 1194 | 1176
x1 = 0.2815 | 835.699 | 831.499 | 827.23 | 822.897 | 818.493 | 1252.2 | 1234 | 1218.3 | 1199.1 | 1181.2
x1 = 0.3581 | 841.995 | 837.767 | 833.49 | 829.144 | 824.735 | 1256.8 | 1238.2 | 1222.6 | 1203.6 | 1185.7
x1 = 0.4421 | 848.377 | 844.12 | 839.804 | 835.438 | 831.018 | 1261.1 | 1242.5 | 1226.7 | 1207.9 | 1190
x1 = 0.5348 | 854.7 | 850.417 | 846.095 | 841.719 | 837.299 | 1265.3 | 1246.8 | 1230.6 | 1212 | 1194.1
x1 = 0.627 | 860.446 | 856.141 | 851.795 | 847.417 | 842.98 | 1268.8 | 1250.7 | 1233.8 | 1215.3 | 1197.5
x1 = 0.7213 | 865.799 | 861.469 | 857.116 | 852.712 | 848.267 | 1271.6 | 1254 | 1236.5 | 1218.2 | 1200.3
x1 = 0.8116 | 870.476 | 866.131 | 861.747 | 857.328 | 852.892 | 1274 | 1256.4 | 1238.8 | 1220.6 | 1202.8
x1 = 0.8581 | 872.724 | 868.372 | 863.985 | 859.577 | 855.127 | 1275.3 | 1257.5 | 1239.8 | 1221.9 | 1204.1
x1 = 0.9062 | 874.964 | 870.61 | 866.21 | 861.774 | 857.32 | 1276.4 | 1258.6 | 1240.8 | 1222.8 | 1205
x1 = 0.9536 | 877.051 | 872.689 | 868.316 | 863.853 | 859.383 | 1277.7 | 1259.7 | 1242 | 1223.9 | 1206.1
x1 = 1 | 879.031 | 874.632 | 870.204 | 865.737 | 861.241 | 1279 | 1260.9 | 1242.9 | 1224.9 | 1207
